The values that follow come from US9108969B2, “Substituted tricyclic acid derivatives as S1P1 receptor agonists useful in the treatment of autoimmune and inflammatory disorders” (Arena Pharmaceuticals, Inc., priority 2008, dated 2015).

Molecules are shown by their SMILES.

For data set [1], the system named is peripheral blood lymphocyte (PBL) count. The experiment in a line: Mouse peripheral lymphocyte lowering (PLL) assay. Type of data set: in vivo, Male BALB/c mice. As to conditions: oral dose, 5 hours post-dose, FIG. 11. As to the method: Animals: Male BALB/c mice (Charles River Laboratories, Wilmington, Mass.) were housed four per cage and maintained in a humidity-controlled (40 to 60%) and temperature-controlled (68 to 72° F.) facility on a 12 h:12 h light/dark cycle (lights on at 6:30 am) with free access to food (Harlan Teklad, Orange, Calif., Rodent Diet 8604) and water. Mice were allowed one week of habituation to the animal facility before testing.
PLL Assay: Mice were given an oral dose of Compound 2 or dosing vehicle (0.5% methylcellulose) in a total volume of 10 mL/kg. Peripheral blood samples were collected at 5 hours post-dose. The mice were anesthetized with isoflurane and blood was collected via cardiac puncture. A complete cell count (CBC), including lymphocyte count, was obtained using a CELL-DYN® 3700 (Abbott Laboratories, Abbott Park, Ill.) instrument. Results are presented in FIG. 11, in which peripheral blood lymphocyte (PBL) count is shown for the 5 hour group.

The target in a further data set is T1, human S1P1 receptor (Homo sapiens, UniProt P21453).
T1 construct: expressed in transfected cells; host or cells: CHO-K1 (ATCC CCL-61), stably transfected
T1 sequence (P21453 whole entry): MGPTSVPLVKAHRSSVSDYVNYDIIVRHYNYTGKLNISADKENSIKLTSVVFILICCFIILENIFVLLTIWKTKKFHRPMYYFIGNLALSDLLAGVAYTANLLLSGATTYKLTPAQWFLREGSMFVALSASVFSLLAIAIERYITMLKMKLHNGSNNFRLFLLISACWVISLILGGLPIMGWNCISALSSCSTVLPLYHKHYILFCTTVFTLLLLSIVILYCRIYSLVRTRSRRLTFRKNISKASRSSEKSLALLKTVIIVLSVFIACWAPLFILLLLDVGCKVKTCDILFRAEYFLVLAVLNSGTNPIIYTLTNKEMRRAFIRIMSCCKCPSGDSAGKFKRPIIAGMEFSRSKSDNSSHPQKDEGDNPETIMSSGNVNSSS
The data set is described as follows: HTRF assay for direct cAMP measurement (S1P1 agonism). In kind it is cell-based. As to conditions: recombinant CHO-K1 cells stably transfected with S1P1; decrease of cAMP. The source says:
Compounds were screened for agonists of the S1P1 receptor (e.g., human S1P1 receptor) using the HTRF® assay for direct cAMP measurement (Gabriel et al., Assay and Drug Development Technologies, 1:291-303, 2003) and recombinant CHO-K1 cells stably transfected with S1P1. CHO-K1 cells were obtained from ATCC® (Manassas, Va.; Catalog #CCL-61). An agonist of the S1P1 receptor was detected in the HTRF® assay for direct cAMP measurement as a compound which decreased cAMP concentration. HTRF® assay also was used to determine EC50 values for S1P1 receptor agonists.
Principle of the Assay:HTRF® assay kit was purchased from Cisbio-US, Inc. (Bedford, Mass.; Catalog #62AM4PEC). The HTRF® assay supported by the kit is a competitive immunoassay between endogenous cAMP produced by the CHO-K 1 cells and tracer cAMP labeled with the dye d2. The tracer binding is visualized by a monoclonal anti-cAMP antibody labeled with Cryptate. The specific signal (i.e., fluorescence resonance energy transfer, FRET) is inversely proportional to the concentration of unlabeled cAMP in the standard or sample.
Standard Curve:The fluorescence ratio (665 nm/620 nm) of the standards (0.17 to 712 nM cAMP) included in the assay was calculated and used to generate a cAMP standard curve according to the kit manufacturer's instructions. The fluorescence ratio of the samples (test compound or compound buffer) was calculated and used to deduce respective cAMP concentrations by reference to the cAMP standard curve.
Setup of the Assay: The HTRF® assay was carried out using a two-step protocol essentially according to the kit manufacturer's instructions, in 20 μL total volume per well in 384-well plate format (ProxiPlates; PerkinElmer, Fremont, Calif.; catalog #6008280). To each of the experimental wells was transferred 1500 recombinant CHO-K1 cells in 5 μL phosphate buffered saline containing calcium chloride and magnesium chloride (PBS+; Invitrogen, Carlsbad, Calif.; catalog #14040) supplemented with IBMX (250 μM) and rolipram (20 μM) (phosphodiesterase inhibitors; Sigma-Aldrich, St. Louis, Mo.; catalog #15879 and catalog #R6520, respectively), followed by test compound in 5 μL compound buffer (PBS+ supplemented with […] (water-soluble forskolin derivative; SignaGen Laboratories, Gaithersburg, Md.; catalog #PKI-NKH477-010)) or 5 μL compound buffer. The plate was then incubated at room temperature for 1 h. To each well was then added 5 μL cAMP-d2 conjugate in lysis buffer and 5 μL Cryptate conjugate in lysis buffer according to the kit manufacturer's instructions. The plate was then further incubated at room temperature for 1 hour, after which the assay plate was read.
Assay Readout: HTRF® readout was accomplished using a PHERAstar (BMG LABTECH Inc., Durham, N.C.) or EnVision™ (PerkinElmer, Fremont Calif.) microplate reader.
In general terms: TR-FRET usually uses a lanthanide donor and a delayed reading to cut background.

The next data set deals with peripheral lymphocytes. The note with it: Hale et al. 2004; cited from earlier work.
For data set [2] the following is noted: attributed to agonism of the S1P3 receptor; cited from earlier work.
A further data set has as its system multiple sclerosis. The note with it: patients with multiple sclerosis, Phase II; cited from earlier work.
For data set [3], the system named is experimental autoimmune uveoretinitis. The note with it: short-term high dose; cited from earlier work.
In data set [4] the test system is ovariectomy-induced osteoporosis. The note with it: mice; cited from earlier work.
Data set [5] concerns VEGF-induced vascular permeability. The note with it: mice, oral administration; cited from earlier work.
The subject of data set [6] is spared nerve injury model. As to conditions: cited from earlier work.
For data set [7], the system named is contact hypersensitivity (CHS). The note with it: murine; cited from earlier work.
Data set [8] concerns experimental autoimmune myasthenia gravis (EAMG). The note with it: prophylactic oral administration, 1 mg/kg, three times a week, C57BL/6 mice; cited from earlier work.
For data set [9], the system named is peripheral blood lymphocyte (PBL) count. The data set is described as follows: Rat peripheral lymphocyte lowering (PLL) assay. In kind it is in vivo, Male Sprague-Dawley rats. As to conditions: 1 mg/kg intravenous dose, 5 h post-dose, FIG. 12 and 13. Here is the method: Animals: Male Sprague-Dawley rats (Charles River Laboratories, Hollister, Calif.) were housed and maintained in humidity (40 to 60%) and temperature (68 to 72° F.) controlled facility on a 12 h:12 h light/dark cycle (lights on at 6:30 am) with free access to food (Harlan Teklad, Orange, Calif., Rodent Diet 8604) and water. Rats were allowed (approximately) one week of habituation to the animal facility before testing.
PLL Assay: Rats were given a 1 mg/kg intravenous dose of the first enantiomer isolated after resolution of compound 12 by HPLC (retention time: 15 min per the conditions reported in Example 1.3), or dosing vehicle (40% hydroxypropyl-cyclodextrin (HPCD)) in a total volume of 1 mL/kg. Peripheral blood samples were collected at 5 h post-dose. Blood was collected via indwelling catheter. A complete cell count (CBC), including lymphocyte count, was obtained using a CELL-DYN® 3700 (Abbott Laboratories, Abbott Park, Ill.) instrument. Results are presented in FIG. 12, in which peripheral blood lymphocyte (PBL) count is shown for the 5 hour group.
Similarly, rats were given a 1 mg/kg intravenous dose of the second enantiomer isolated after resolution of compound 12 by HPLC (retention time: 18 min per the conditions reported in Example 1.3), or dosing vehicle (40% hydroxypropyl-cyclodextrin (HPCD)) in a total volume of 1 mL/kg. […]

For data set [10], the system named is collagen-induced arthritis. The data set is described as follows: Collagen-induced arthritis assay. The note with it: rat, 0.3, 1 and 3 mg/kg p.o. q.d. day 0 through day 16, FIG. 14. In kind it is in vivo, Female Lewis rats. As to the method: Female Lewis rats were used in this study. Acclimated animals were anesthetized with isoflurane and given the first collagen injection (day 0). On day 6, they were anesthetized again for the second collagen injection. Collagen was prepared by making a 4 mg/mL solution in 0.01 N acetic acid. Equal volumes of collagen and incomplete Freund's adjuvant were emulsified by hand mixing until a bead of this material held its form when placed in water. Each animal received 300 μL of the mixture each time, spread over 3 subcutaneous sites on the back.
Treatment (p.o., q.d., 5 mL/kg dosing volume) began on day 0 and continued through day 16 with vehicle or compounds given at 24 h intervals. Rats were weighed on days 0, 3, 6 and 9 through 17 and caliper measurements of the ankles taken on days 9 through 17.
The second enantiomer isolated after resolution of compound 12 by HPLC (retention time: 18 min per the conditions reported in Example 1.3), was dosed at 0.3, 1 and 3 mg/kg.

On to `N#Cc1cc(COc2ccc3c(c2)cc2n3CCC2CC(=O)O)cc(OC(F)(F)F)c1` (centres unmarked) [Compound 2, 2-(7-(3-cyano-5-(trifluoromethoxy)benzyloxy)-2,3-dihydro-1H-pyrrolo[1,2-a]indol-1-yl)acetic acid], for which the “peripheral blood lymphocyte (PBL) lowering compared to vehicle” value in data set [1] is on record as “exhibited activity for inducing PBL lowering (lymphopenia)”. Consider `CC(C)Cc1ccc(COc2ccc3c(c2)cc2n3CCC2CC(=O)O)cc1C(F)(F)F` (centres unmarked) [Compound 4, 2-(7-(4-isobutyl-3-(trifluoromethyl)benzyloxy)-2,3-dihydro-1H-pyrrolo[1,2-a]indol-1-yl)acetic acid], for which the half-maximal effective concentration (EC50) on human S1P1 receptor worked out at 0.321 nM. Same read-out and setting: to `CC(C)Oc1ccc(COc2ccc3c(c2)cc2n3CCC2CC(=O)O)cc1C#N` (centres unmarked) [Compound 6, 2-(7-(3-cyano-4-isopropoxybenzyloxy)-2,3-dihydro-1H-pyrrolo[1,2-a]indol-1-yl)acetic acid] belongs 0.239 nM. Still for that read-out and setting: to `O=C(O)CC1CCn2c1c(I)c1cc(OCc3ccc(C4CCCC4)c(C(F)(F)F)c3)ccc12` (centres unmarked) [Compound 10, 2-(7-(4-cyclopentyl-3-(trifluoromethyl)benzyloxy)-9-iodo-2,3-dihydro-1H-pyrrolo[1,2-a]indol-1-yl)acetic acid] belongs 0.011 nM.

Regarding `O=C(O)CC1CCn2c1c(C1CCC1)c1cc(OCc3ccc(C4CCCC4)c(C(F)(F)F)c3)ccc12` (centres unmarked) [Compound 11, 2-(9-cyclobutyl-7-(4-cyclopentyl-3-(trifluoromethyl)benzyloxy)-2,3-dihydro-1H-pyrrolo[1,2-a]indol-1-yl)acetic acid], the EC50 at human S1P1 receptor came to 5.2 nM. On the same count and under the same terms, to `O=C(O)CC1CCn2c1nc1cc(OCc3ccc(C4CCCC4)c(C(F)(F)F)c3)ccc12` (centres unmarked) [Compound 14, 2-(6-(4-cyclopentyl-3-(trifluoromethyl)benzyloxy)-2,3-dihydro-1H-benzo[d]pyrrolo[1,2-a]imidazol-3-yl)acetic acid] belongs 6.3 nM. For `CCCCCCCCc1ccc(CCC(N)(CO)CO)cc1` [FTY720], the “induction of lymphopenia (peripheral lymphocyte lowering)” value with peripheral lymphocytes is “rapidly and reversibly induce lymphopenia”. Also, the “adverse event in clinical trials” value in data set [2] was “transient asymptomatic bradycardia”. The “MRI lesions and clinical disease activity” value with multiple sclerosis is “reduce the number of lesions detected by magnetic resonance imaging (MRI) and clinical disease activity”. Besides, in [3], the ocular infiltrates entry is “rapidly reduced ocular infiltrates”. Besides, the ovariectomy-induced osteoporosis entry in [4] is reported as “relieved ovariectomy-induced osteoporosis”. For the same compound, the VEGF-induced vascular permeability result in [5] was “potently blocked VEGF-induced vascular permeability”. Further, the nociceptive behavior result in data set [6] is given as “reduce the nociceptive behavior”. Besides, the “initiation of contact hypersensitivity” value in [7] was “impair initiation of murine contact hypersensitivity”. For the same compound, the “development of EAMG” value in [8] is “completely prevented the development of experimental autoimmune myasthenia gravis”. As for `O=C(O)CC1CCn2c1cc1cc(OCc3ccc(C4CCCC4)c(C(F)(F)F)c3)ccc12` (stereo not drawn) [first enantiomer isolated after resolution of compound 12 by HPLC, 2-(7-(4-cyclopentyl-3-(trifluoromethyl)benzyloxy)-2,3-dihydro-1H-pyrrolo[1,2-a]indol-1-yl)acetic acid], the “peripheral blood lymphocyte (PBL) lowering compared to vehicle” value in data set [9] was “exhibited activity for inducing PBL lowering (lymphopenia)”. For `O=C(O)CC1CCn2c1cc1cc(OCc3ccc(C4CCCC4)c(C(F)(F)F)c3)ccc12` (stereo not drawn) [second enantiomer isolated after resolution of compound 12 by HPLC, 2-(7-(4-cyclopentyl-3-(trifluoromethyl)benzyloxy)-2,3-dihydro-1H-pyrrolo[1,2-a]indol-1-yl)acetic acid], the “reduction of mean ankle diameter compared to vehicle” value in data set [10] is listed as “exhibited activity for reducing mean ankle diameter”.

Broadly, the EC50 is the concentration at which the effect is half-maximal.
